Reference: ChEMBL document CHEMBL1201862, “PubChem BioAssay data set” (2004)
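Each compound was tested at five concentrations against cells in 96-well plates for 48 hours. GI50 is the concentration that inhibits growth by half.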 Active and inactive are the calls of the source. Rule as the data show it: active = GI50 up to about 1.1 µM and inactive = higher.

Key:
Assay in all cases: growth of human tumour cells (NCI), 48 h
SNB-19 = tested on: SNB-19
MOLT-4 = tested on: MOLT-4
PC-3 = tested on: PC-3
HOP-62 = tested on: HOP-62
UACC-62 = tested on: UACC-62
IGROV-1 = tested on: IGROV-1
SR = tested on: SR
ACHN = tested on: ACHN
U-251 = tested on: U-251
KM12 = tested on: KM12
DU-145 = tested on: DU-145
BT-549 = tested on: BT-549
SN12C = tested on: SN12C
SW-620 = tested on: SW-620
CCRF-CEM = tested on: CCRF-CEM
SNB-75 = tested on: SNB-75
MCF7 = tested on: MCF7
OVCAR-3 = tested on: OVCAR-3
SF-295 = tested on: SF-295
SK-MEL-5 = tested on: SK-MEL-5
NCI-H226 = tested on: NCI-H226
HCC 2998 = tested on: HCC 2998
M14 = tested on: M14
T47D = tested on: T47D
OVCAR-8 = tested on: OVCAR-8
SK-MEL-2 = tested on: SK-MEL-2
NCI-H522 = tested on: NCI-H522
SF-539 = tested on: SF-539
RPMI-8226 = tested on: RPMI-8226
HCT-116 = tested on: HCT-116
NCI-H23 = tested on: NCI-H23
EKVX = tested on: EKVX
MDA-MB-231 = tested on: MDA-MB-231
RXF 393 = tested on: RXF 393
OVCAR-5 = tested on: OVCAR-5
CAKI-1 = tested on: CAKI-1
A549 = tested on: A549
HT-29 = tested on: HT-29
COLO 205 = tested on: COLO 205
SK-OV-3 = tested on: SK-OV-3
OVCAR-4 = tested on: OVCAR-4
TK-10 = tested on: TK-10
UACC-257 = tested on: UACC-257
HOP-92 = tested on: HOP-92
NCI-H460 = tested on: NCI-H460
LOX IMVI = tested on: LOX IMVI
HL-60 = tested on: HL-60
NCI/ADR-RES = tested on: NCI/ADR-RES
SK-MEL-28 = tested on: SK-MEL-28
MDA-N = tested on: MDA-N
UO-31 = tested on: UO-31
MDA-MB-435 = tested on: MDA-MB-435
Hs-578T = tested on: Hs-578T
K562 = tested on: K562
SF-268 = tested on: SF-268
HCT-15 = tested on: HCT-15
786-0 = tested on: 786-0
Malme-3M = tested on: Malme-3M
A498 = tested on: A498

SMILES: O=C1OC(c2ccccc2)N/C1=C\c1ccc2c(c1)OCO2 (stereo not drawn)
- GI50 (SNB-19): > 100 µM (inactive)
- GI50 (MOLT-4): > 63.1 µM (inactive)
- GI50 (PC-3): > 100 µM (inactive)
- GI50 (HOP-62): > 56.8 µM (inactive)
- GI50 (UACC-62): > 100 µM (inactive)
- GI50 (IGROV-1): 48.6 µM (inactive)
- GI50 (SR): 28.1 µM (inactive)
- GI50 (ACHN): > 100 µM (inactive)
- GI50 (U-251): 59.3 µM (inactive)
- GI50 (KM12): 46.7 µM (inactive)
- GI50 (DU-145): > 100 µM (inactive)
- GI50 (BT-549): > 100 µM (inactive)
- GI50 (SN12C): > 100 µM (inactive)
- GI50 (SW-620): > 88.1 µM (inactive)
- GI50 (CCRF-CEM): 33.6 µM (inactive)
- GI50 (SNB-75): 98.9 µM (inactive)
- GI50 (MCF7): > 100 µM (inactive)
- GI50 (OVCAR-3): 79.3 µM (inactive)
- GI50 (SF-295): > 100 µM (inactive)
- GI50 (SK-MEL-5): > 55.8 µM (inactive)
- GI50 (NCI-H226): 34 µM (inactive)
- GI50 (HCC 2998): 54.2 µM (inactive)
- GI50 (M14): > 74 µM (inactive)
- GI50 (T47D): > 100 µM (inactive)
- GI50 (OVCAR-8): 43.5 µM (inactive)
- GI50 (SK-MEL-2): > 77.1 µM (inactive)
- GI50 (NCI-H522): 35.6 µM (inactive)
- GI50 (SF-539): 29.4 µM (inactive)
- GI50 (RPMI-8226): 25.2 µM (inactive)
- GI50 (HCT-116): > 100 µM (inactive)
- GI50 (NCI-H23): > 100 µM (inactive)
- GI50 (EKVX): > 100 µM (inactive)
- GI50 (MDA-MB-231): > 100 µM (inactive)
- GI50 (RXF 393): > 100 µM (inactive)
- GI50 (OVCAR-5): > 100 µM (inactive)
- GI50 (CAKI-1): > 100 µM (inactive)
- GI50 (A549): > 100 µM (inactive)
- GI50 (HT-29): > 100 µM (inactive)
- GI50 (COLO 205): > 100 µM (inactive)
- GI50 (SK-OV-3): > 100 µM (inactive)
- GI50 (OVCAR-4): 36.7 µM (inactive)
- GI50 (TK-10): > 100 µM (inactive)
- GI50 (UACC-257): > 100 µM (inactive)
- GI50 (HOP-92): > 100 µM (inactive)
- GI50 (NCI-H460): > 100 µM (inactive)
- GI50 (LOX IMVI): 53.3 µM (inactive)
- GI50 (HL-60): 0.219 µM (active)
- GI50 (NCI/ADR-RES): > 52.2 µM (inactive)
- GI50 (SK-MEL-28): 87.5 µM (inactive)
- GI50 (MDA-N): > 75.9 µM (inactive)
- GI50 (UO-31): > 100 µM (inactive)
- GI50 (MDA-MB-435): > 100 µM (inactive)
- GI50 (Hs-578T): 72.9 µM (inactive)
- GI50 (K562): > 100 µM (inactive)
- GI50 (SF-268): > 100 µM (inactive)
- GI50 (HCT-15): > 100 µM
- GI50 (786-0): > 100 µM (inactive)

SMILES: COC1=C(OC)C(=O)C(Cc2c(C)nc3sc(C)cn23)=C(C)C1=O
- GI50 (SNB-19): 19 µM (inactive)
- GI50 (MOLT-4): 1.7 µM (inactive)
- GI50 (PC-3): 23.4 µM (inactive)
- GI50 (HOP-62): 18.5 µM (inactive)
- GI50 (UACC-62): 14 µM (inactive)
- GI50 (IGROV-1): 17.4 µM (inactive)
- GI50 (SR): 17.9 µM (inactive)
- GI50 (ACHN): 15.1 µM (inactive)
- GI50 (U-251): 19.8 µM (inactive)
- GI50 (KM12): 26.3 µM (inactive)
- GI50 (DU-145): 20.2 µM (inactive)
- GI50 (BT-549): 16.9 µM (inactive)
- GI50 (SN12C): 16.9 µM (inactive)
- GI50 (SW-620): 25.5 µM (inactive)
- GI50 (CCRF-CEM): 7.13 µM (inactive)
- GI50 (MCF7): 20.5 µM (inactive)
- GI50 (OVCAR-3): 17.5 µM (inactive)
- GI50 (SF-295): 19.1 µM (inactive)
- GI50 (SK-MEL-5): 15.2 µM (inactive)
- GI50 (HCC 2998): 29 µM (inactive)
- GI50 (Malme-3M): 14.9 µM (inactive)
- GI50 (M14): 17 µM (inactive)
- GI50 (T47D): 34.1 µM (inactive)
- GI50 (OVCAR-8): 17.1 µM (inactive)
- GI50 (SK-MEL-2): 17.4 µM (inactive)
- GI50 (NCI-H522): 17.4 µM (inactive)
- GI50 (SF-539): 17.4 µM (inactive)
- GI50 (RPMI-8226): 16.3 µM (inactive)
- GI50 (HCT-116): 19.8 µM (inactive)
- GI50 (NCI-H23): 15 µM (inactive)
- GI50 (EKVX): 16.7 µM (inactive)
- GI50 (MDA-MB-231): 14.7 µM (inactive)
- GI50 (RXF 393): 20.9 µM (inactive)
- GI50 (OVCAR-5): 22.2 µM (inactive)
- GI50 (CAKI-1): 20.4 µM (inactive)
- GI50 (A549): 19.5 µM (inactive)
- GI50 (HT-29): 20.2 µM (inactive)
- GI50 (COLO 205): 19.3 µM (inactive)
- GI50 (SK-OV-3): 22 µM (inactive)
- GI50 (OVCAR-4): 10.9 µM (inactive)
- GI50 (TK-10): 18.5 µM (inactive)
- GI50 (UACC-257): 12.8 µM (inactive)
- GI50 (NCI-H460): 20 µM (inactive)
- GI50 (A498): 33 µM (inactive)
- GI50 (LOX IMVI): 17.4 µM (inactive)
- GI50 (HL-60): 11.6 µM (inactive)
- GI50 (NCI/ADR-RES): 15.9 µM (inactive)
- GI50 (SK-MEL-28): 16.1 µM (inactive)
- GI50 (MDA-N): 18 µM (inactive)
- GI50 (UO-31): 16.8 µM (inactive)
- GI50 (MDA-MB-435): 17.9 µM (inactive)
- GI50 (Hs-578T): 23.9 µM (inactive)
- GI50 (K562): 16.9 µM (inactive)
- GI50 (SF-268): 17.7 µM (inactive)
- GI50 (HCT-15): 26.1 µM
- GI50 (786-0): 19.7 µM (inactive)
